A short description of series [1]: Half life in Sprague-Dawley rat at 1 mg/kg, iv measured upto 24 hrs by LC-MS/MS analysis. The class given is ADME, organism-based. The settings on record: in vivo.
The nature of series [2]: Cmax in Sprague-Dawley rat at 10 mg/kg, po measured upto 24 hrs by LC-MS/MS analysis. It counts as ADME, organism-based. Also on record: route oral, dose 10 mg/kg, time <=24. As to conditions: in vivo.
Series [3] can be described thus: Oral bioavailability in Sprague-Dawley rat at 3 mg/kg measured upto 24 hrs by LC-MS/MS analysis. It counts as ADME, organism-based. The settings on record: in vivo.
The nature of series [4]: Clearance in Sprague-Dawley rat at 1 mg/kg, iv measured upto 24 hrs by LC-MS/MS analysis. It counts as ADME, organism-based. The settings on record: in vivo.
Series [5] in a line: Metabolic stability human hepatocytes assessed as intrinsic clearance at 1 uM measured up to 120 mins by LC-MS/MS analysis. It counts as ADME, cell-based, Hepatocyte. The settings on record: read-out: CLH.
The test system of series [6] is P-gp. Nature of the series: Substrate activity at P-gp in dog MDCKII-MDR1 cells assessed as efflux ratio of permeability at 1 uM incubated for 120 mins. It counts as ADME, cell-based, Canis lupus familiaris. As to conditions: MDCK-MDR1.
For series [7], the species on record is Homo sapiens. Briefly: Selectivity ratio of IC50 for human CDK6 to IC50 for human CDK5.
Series [8] concerns the target CDK6/cyclin D3 (Homo sapiens, UniProt Q00534). Nature of the series: Inhibition of full length N-terminal GST fused human CDK6 (1 to 326 residues)/CyclinD3 (1 to 292 residues) expressed in baculovirus expression system using FL peptide as substrate preincubated for 30 mins followed by substrate addition and further incubated for 120 mins by EZ reader method.
Series [9] is described as follows: Metabolic stability in Sprague-Dawley rat hepatocytes assessed as intrinsic clearance at 1 uM measured up to 120 mins by LC-MS/MS analysis. It counts as ADME, cell-based, Hepatocyte. As to conditions: read-out: CLH.
Series [10] in a line: Kinetic aqueous solubility of compound in PBS at pH 7.4 incubated for 2 hrs by LC-MS/MS analysis. The class given is physicochemical. The settings on record: read-out: Kinetic_solubility.
Series [11] addresses T1, Cyclin-dependent kinase 5/CDK5 activator 1 (Homo sapiens, UniProt Q00535). Briefly: Inhibition of full length N-terminal GST fused human CDK5(1 to 292 residues)/ p25 (99 to 307 residues) expressed in baculovirus expression system using FL peptide as substrate preincubated for 30 mins followed by substrate addition further incubated for 60 mins by EZ reader method.
A short description of series [12]: Metabolic stability in CD-1 mouse hepatocytes assessed as intrinsic clearance at 1 uM measured up to 120 mins by LC-MS/MS analysis. It counts as ADME, cell-based, Hepatocyte. As to conditions: read-out: CLH.
Series [13] can be described thus: AUC (0 to 24 hrs) in Sprague-Dawley rat at 3 mg/kg, po measured upto 24 hrs by LC-MS/MS analysis. On the set-up: route oral, dose 3 mg/kg, time <=24. The class given is ADME, organism-based. The settings on record: in vivo.
The species named for series [14] is Homo sapiens. Briefly: Selectivity ratio of IC50 for inhibition of full length N-terminal GST tagged human CDK2(1 to 298 residues)/CyclinA2 (1 to 432 residues) to IC50 for inhibition of full length N-terminal GST fused human CDK5(1 to 292 residues)/ p25 (99 to 307 residues).
For series [15], the target named is CDK7/Cyclin H/MNAT1 (Homo sapiens, UniProt P50613). Nature of the series: Inhibition of full length N-terminal GST fused human CDK7 (1 to 346 residues)/CyclinH (1 to 323 residues)/ MAT1 (1 to 309 residues) expressed in baculovirus expression system using FL peptide as substrate preincubated for 30 mins followed by substrate addition and further incubated for 90 mins by EZ reader method.

Series [16] can be described thus: Apparent permeability across apical to basolateral side in dog MDCKII-MDR1 cells at 1 uM incubated for 120 mins. The class given is ADME, cell-based, Canis lupus familiaris. As to conditions: MDCK-MDR1.
Series [17] is described as follows: Oral bioavailability in Sprague-Dawley rat at 10 mg/kg measured upto 24 hrs by LC-MS/MS analysis. It counts as ADME, organism-based. The settings on record: in vivo.
A short description of series [18]: AUC (0 to 24 hrs) in Sprague-Dawley rat at 1 mg/kg, iv measured upto 24 hrs by LC-MS/MS analysis. The class given is ADME, organism-based. On the set-up: route intravenous, dose 1 mg/kg, time <=24. The settings on record: in vivo.
A short description of series [19]: AUC (0 to 24 hrs) in Sprague-Dawley rat at 10 mg/kg, po measured upto 24 hrs by LC-MS/MS analysis. The settings on record: in vivo. The class given is ADME, organism-based. Also on record: route oral, dose 10 mg/kg, time <=24.
Series [20] is filed under the species Homo sapiens. Nature of the series: Selectivity ratio of IC50 for human CDK7 to IC50 for human CDK5.
Series [21] can be described thus: Plasma protein binding in Sprague-Dawley rat at 1 uM incubated for 6 hrs by equilibrium dialysis based LC-MS/MS analysis. It counts as ADME, cell-free. The settings on record: read-out: PPB (converted). Background: Equilibrium dialysis compares concentrations on both sides of a semipermeable membrane.
A short description of series [22]: Volume of distribution at steady state in Sprague-Dawley rat at 1 mg/kg, iv measured upto 24 hrs by LC-MS/MS analysis. It counts as ADME, organism-based. The settings on record: in vivo, read-out: Vdss.
Series [23] addresses CDK9/cyclin T1 (Homo sapiens, UniProt P50750). Briefly: Inhibition of full length N-terminal GST fused human CDK9(1 to 372 residues)/ His- tagged CyclinT1 (1 to 726 residues) expressed in baculovirus expression system using FL peptide as substrate preincubated for 30 mins followed by substrate addition and further incubated for 90 mins by EZ reader method.
The species entered for series [24] is Homo sapiens. Nature of the series: Selectivity ratio of IC50 for human CDK9 to IC50 for human CDK5.
Series [25] in a line: Cmax in Sprague-Dawley rat at 3 mg/kg, po measured upto 24 hrs by LC-MS/MS analysis. The class given is ADME, organism-based. Also on record: route oral, dose 3 mg/kg, time <=24. As to conditions: in vivo.
The target in series [26] is CDK2/Cyclin A2 (Homo sapiens, UniProt P24941). Nature of the series: Inhibition of full length N-terminal GST tagged human CDK2(1 to 298 residues)/CyclinA2 (1 to 432 residues) expressed in baculovirus expression system using FL peptide as substrate preincubated for 30 mins followed by substrate addition further incubated for 120 mins by EZ reader method.
Series [27] deals with HEK-293T. Nature of the series: Antiproliferative activity against human HEK293T cells assessed as cell growth inhibition incubated for 48 hrs. It counts as functional, cell-based.
The target of series [28] is T1, Cyclin-dependent kinase 5/CDK5 activator 1. Briefly: Inhibition of Nano-Luc fused human full length CDK5/P35 transfected in HEK293 cells incubated for 1 hr by NanoBRET assay. It counts as cell-based. For orientation: BRET reads energy transfer from a luciferase to a nearby fluorophore.

In brackets after ≈: the same amount, converted by molar mass.

CDK9/cyclin T1, sequence (O60563 whole entry, the tested form may be a part): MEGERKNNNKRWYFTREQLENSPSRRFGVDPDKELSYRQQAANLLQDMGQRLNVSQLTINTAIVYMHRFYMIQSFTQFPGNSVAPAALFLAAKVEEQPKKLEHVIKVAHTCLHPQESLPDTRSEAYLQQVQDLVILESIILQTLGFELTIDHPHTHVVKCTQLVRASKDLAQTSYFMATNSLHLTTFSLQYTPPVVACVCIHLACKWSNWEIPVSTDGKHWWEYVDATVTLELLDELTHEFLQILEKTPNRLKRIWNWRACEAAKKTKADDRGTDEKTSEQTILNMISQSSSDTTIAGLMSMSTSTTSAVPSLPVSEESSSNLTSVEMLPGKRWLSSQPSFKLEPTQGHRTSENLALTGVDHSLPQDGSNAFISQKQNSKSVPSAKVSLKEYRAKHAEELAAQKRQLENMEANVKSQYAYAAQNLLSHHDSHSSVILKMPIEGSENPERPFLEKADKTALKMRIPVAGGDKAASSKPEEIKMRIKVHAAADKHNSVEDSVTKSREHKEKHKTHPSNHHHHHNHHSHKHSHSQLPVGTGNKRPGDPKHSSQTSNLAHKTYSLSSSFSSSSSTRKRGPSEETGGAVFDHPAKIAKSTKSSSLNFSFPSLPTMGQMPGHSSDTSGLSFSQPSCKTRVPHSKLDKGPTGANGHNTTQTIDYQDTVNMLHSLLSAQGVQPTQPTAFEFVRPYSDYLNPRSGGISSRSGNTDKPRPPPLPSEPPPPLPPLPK
CDK9/cyclin T1, sequence (P50750 whole entry, the tested form may be a part): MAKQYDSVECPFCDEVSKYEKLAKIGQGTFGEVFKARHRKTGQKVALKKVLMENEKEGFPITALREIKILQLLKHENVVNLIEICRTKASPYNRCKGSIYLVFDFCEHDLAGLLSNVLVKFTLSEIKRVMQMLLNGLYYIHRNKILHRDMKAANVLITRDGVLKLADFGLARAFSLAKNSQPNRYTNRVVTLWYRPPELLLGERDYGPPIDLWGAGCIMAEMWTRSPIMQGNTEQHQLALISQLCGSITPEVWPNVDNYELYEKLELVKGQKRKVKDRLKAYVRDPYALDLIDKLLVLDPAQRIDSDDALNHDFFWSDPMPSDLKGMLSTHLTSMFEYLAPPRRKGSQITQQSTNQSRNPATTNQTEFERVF
CDK7/Cyclin H/MNAT1, sequence (P51946 whole entry, the tested form may be a part): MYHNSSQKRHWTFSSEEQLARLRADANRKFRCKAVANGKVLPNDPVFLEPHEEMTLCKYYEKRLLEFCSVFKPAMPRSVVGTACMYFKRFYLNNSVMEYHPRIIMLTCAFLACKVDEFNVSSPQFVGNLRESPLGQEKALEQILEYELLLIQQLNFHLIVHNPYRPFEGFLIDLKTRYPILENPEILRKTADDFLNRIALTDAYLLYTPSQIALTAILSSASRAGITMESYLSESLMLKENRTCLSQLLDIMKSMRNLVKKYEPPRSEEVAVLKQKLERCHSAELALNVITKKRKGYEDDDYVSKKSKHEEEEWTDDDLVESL
CDK7/Cyclin H/MNAT1, sequence (P50613 whole entry, the tested form may be a part): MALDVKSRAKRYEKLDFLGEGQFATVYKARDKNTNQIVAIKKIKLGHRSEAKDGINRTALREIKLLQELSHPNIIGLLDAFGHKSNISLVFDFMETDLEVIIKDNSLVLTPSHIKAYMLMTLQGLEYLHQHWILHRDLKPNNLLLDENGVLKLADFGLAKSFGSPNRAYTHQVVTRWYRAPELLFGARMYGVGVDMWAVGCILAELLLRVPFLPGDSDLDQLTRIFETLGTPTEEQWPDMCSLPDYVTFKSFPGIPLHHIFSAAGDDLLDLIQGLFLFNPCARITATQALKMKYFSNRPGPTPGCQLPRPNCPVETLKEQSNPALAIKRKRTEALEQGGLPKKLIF
CDK7/Cyclin H/MNAT1, sequence (P51948 whole entry, further chain, the tested form may be a part): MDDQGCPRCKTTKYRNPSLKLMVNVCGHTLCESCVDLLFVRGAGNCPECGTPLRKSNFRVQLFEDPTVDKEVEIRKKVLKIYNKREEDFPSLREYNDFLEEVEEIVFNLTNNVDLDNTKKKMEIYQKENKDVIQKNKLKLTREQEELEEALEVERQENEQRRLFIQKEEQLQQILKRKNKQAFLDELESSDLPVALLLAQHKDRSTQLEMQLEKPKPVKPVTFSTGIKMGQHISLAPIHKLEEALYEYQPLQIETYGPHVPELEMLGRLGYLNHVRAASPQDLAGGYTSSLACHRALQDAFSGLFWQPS
CDK6/cyclin D3, sequence (P30281 whole entry, the tested form may be a part): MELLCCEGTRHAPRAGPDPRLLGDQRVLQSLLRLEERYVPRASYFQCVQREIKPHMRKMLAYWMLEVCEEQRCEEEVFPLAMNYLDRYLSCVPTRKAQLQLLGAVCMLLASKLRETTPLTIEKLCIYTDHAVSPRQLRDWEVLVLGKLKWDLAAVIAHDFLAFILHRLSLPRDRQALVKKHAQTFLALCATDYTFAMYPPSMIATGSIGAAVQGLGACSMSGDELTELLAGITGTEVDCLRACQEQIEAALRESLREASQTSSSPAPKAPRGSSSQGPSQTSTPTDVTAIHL
CDK6/cyclin D3, sequence (Q00534 whole entry, the tested form may be a part): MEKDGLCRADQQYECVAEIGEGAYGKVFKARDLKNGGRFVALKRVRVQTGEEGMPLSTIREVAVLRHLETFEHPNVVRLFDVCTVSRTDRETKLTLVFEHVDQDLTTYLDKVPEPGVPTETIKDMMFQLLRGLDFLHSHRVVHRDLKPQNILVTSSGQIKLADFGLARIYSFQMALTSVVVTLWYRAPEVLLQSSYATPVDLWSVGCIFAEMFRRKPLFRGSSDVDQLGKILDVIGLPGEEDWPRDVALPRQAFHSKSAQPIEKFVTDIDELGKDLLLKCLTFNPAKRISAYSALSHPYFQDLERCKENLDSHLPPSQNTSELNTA
T1 sequence (Q00535 whole entry, the tested form may be a part): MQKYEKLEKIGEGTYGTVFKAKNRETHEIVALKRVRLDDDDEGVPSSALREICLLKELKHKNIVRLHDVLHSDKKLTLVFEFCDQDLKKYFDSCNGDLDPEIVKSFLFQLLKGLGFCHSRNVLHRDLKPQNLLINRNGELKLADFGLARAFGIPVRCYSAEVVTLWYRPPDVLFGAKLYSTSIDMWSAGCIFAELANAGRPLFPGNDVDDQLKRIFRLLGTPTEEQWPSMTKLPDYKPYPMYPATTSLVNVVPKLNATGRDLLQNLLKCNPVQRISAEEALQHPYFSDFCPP
T1 sequence (Q15078 whole entry, further chain, the tested form may be a part): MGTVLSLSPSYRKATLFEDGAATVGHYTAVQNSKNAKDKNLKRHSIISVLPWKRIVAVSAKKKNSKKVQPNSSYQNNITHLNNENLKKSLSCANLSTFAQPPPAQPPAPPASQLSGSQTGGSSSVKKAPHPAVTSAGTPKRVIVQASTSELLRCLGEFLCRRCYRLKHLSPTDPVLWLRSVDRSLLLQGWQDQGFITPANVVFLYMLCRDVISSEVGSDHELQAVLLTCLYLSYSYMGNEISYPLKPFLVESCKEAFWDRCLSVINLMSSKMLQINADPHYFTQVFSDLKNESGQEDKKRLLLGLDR

Usually half-life stands for the time needed for the level to fall by half in the phase considered. As usually defined, the Cmax is the maximum level reached in the sampled fluid or tissue. One may read the bioavailability as dose-corrected exposure relative to a reference, in per cent. Read a low bioavailability as little systemic uptake. What is called clearance is the rate of elimination divided by the concentration. Low values mean inefficient removal, high ones efficient removal. As usually defined, the efflux ratio is the permeability from basolateral to apical divided by that in the opposite direction, in the common usage. The IC50 is the midpoint of a concentration-inhibition curve. What is called AUC(0-t) is exposure summed from dosing to a finite time, without extrapolation to infinity. A low value points to low exposure. A word on the Papp A→B: it is how fast a substance crosses the layer from the apical side. For the compound `CN1CCC([C@@](C)(O)c2ccc3cnc(Nc4cc(C(F)(F)F)ncc4F)cc3n2)CC1`, the half-life in series [1] was 7.6 h. Further, the figures for the Cmax in series [2] and in [25] were 350 ng/mL and 83 ng/mL, respectively. Further, the bioavailability was 25% in series [3] and 41% in [17]. The compound also gave a clearance in [4] of 12 mL/min/kg. In addition, the CLint scaled at 1 µM in [5] stood at 13 mL/min/kg; in [9], 17 mL/min/kg; in series [12], 89 mL/min/kg. In series [6], the efflux ratio at 2 h, 1 µM was 9. Also, the Ratio IC50 in [7] is 1390; in series [14], 92; in [20] it was 312; in series [24] it was 389. The IC50 in series [8] was found to be 3200 nM; in [11], 2.3 nM; in [15], 718 nM; in series [23], 894 nM; in series [26], 211 nM. Also, the solubility kinetic at 2 h in [10] amounted to 259 µM (≈ 116 µg/mL). Besides, the AUC(0-t) in [13] came out at 999 ng·h/mL; in series [18], 1300 ng·h/mL; in series [19], 5320 ng·h/mL. Also, in series [16], the Papp A→B at 2 h, 1 µM came out at 18 ×10⁻⁶ cm/s. Also, the fraction unbound at 6 h, 1 µM in [21] is 0.37. For the same compound, in [22], the Vd stood at 7.3 L/kg.

Turning to `CN1CCC([C@@](C)(O)c2ccc3cnc(Nc4cc(N5CCOCC5)ncc4F)cc3n2)CC1`, the half-life in series [1] was 2.7 h. This compound also gave a bioavailability in series [3] of 16%. Further, the clearance in [4] stood at 53 mL/min/kg. Besides, the CLint scaled at 1 µM in [5] was under 7 mL/min/kg; in series [9], under 13 mL/min/kg; in series [12], 69 mL/min/kg. Besides, in series [6], the efflux ratio at 2 h, 1 µM stood at 38. For the same compound, the IC50 in series [27] was over 10000 nM; in series [8] it was 125 nM; in series [28], 1.2 nM; in [11] it was 3.2 nM; in series [15], 78 nM; in series [23], 154 nM. The compound further displayed an IC50 in series [26] of 301 nM. For the same compound, the solubility kinetic at 2 h in series [10] was determined as 274 µM (≈ 128 µg/mL). For the same compound, the AUC(0-t) in series [13] came out at 143 ng·h/mL; in series [18], 305 ng·h/mL. The Ratio IC50 in series [14] was found to be 94. Also, the Papp A→B at 2 h, 1 µM in [16] is 7.9 ×10⁻⁶ cm/s. Moreover, in series [21], the fraction unbound at 6 h, 1 µM was 0.53. The Vd in [22] was determined as 9.4 L/kg. The highest level in series [25] (Cmax) was 19 ng/mL.

For the compound `CN1CCC([C@@](C)(O)c2ccc3cnc(Nc4cc(N5CCOCC5)c(C#N)cc4F)cc3n2)CC1`, the IC50 is over 10000 nM in series [27]; 531 nM in [8]; 1 nM in series [28]; 2 nM in series [11]; 171 nM in series [15]; 201 nM in series [23]. In addition, the IC50 in [26] was determined as 392 nM. The Ratio IC50 in series [14] came to 196.

Consider `CN1CCC([C@@](C)(O)c2ccc3cnc(Nc4cc(N5CCOCC5)ccc4F)cc3n2)CC1`, for which the Ratio IC50 worked out at 136 in [7], 108 in series [14], 41 in [20] and 77 in series [24]. For the same compound, the IC50 in series [27] worked out at 6400 nM; in series [8], 245 nM; in series [28] it was 0.2 nM; in series [11] it was 1.8 nM; in [15], 73 nM; in series [23], 138 nM. This compound had an IC50 in [26] of 194 nM.

For `CC(=O)N1CCN(c2ccc(F)c(Nc3cc4nc([C@](C)(O)C5CCN(C)CC5)ccc4cn3)c2)CC1`, the IC50 in series [27] is 6400 nM; in series [8], 701 nM; in [28], 3.7 nM; in series [11], 2.7 nM; in series [15], 334 nM; in series [23], 523 nM. The IC50 in series [26] came out at 303 nM. The Ratio IC50 in series [14] was 112.

Regarding `CN1CCC([C@@](C)(O)c2ccc3cnc(Nc4ccc(C#N)cc4F)cc3n2)CC1`, the Ratio IC50 amounted to 223 in [7] and 41 in series [14]. Also, the figures for the IC50 in series [11] and in series [26] were 0.8 nM and 33 nM, respectively.
